Consider eleven molecules from ChEMBL document CHEMBL5233207, “Medicinal chemistry of the myeloid C-type lectin receptors Mincle, Langerin, and DC-SIGN” (RSC Med Chem, 2021).

Structures can show the parent of a compound that is named as a salt. Some results are limits rather than exact numbers.

For experiment [1], the target named is T1, C-type lectin domain family 4 member M (Homo sapiens) (UniProt Q9H2X3).
T1 sequence (whole entry): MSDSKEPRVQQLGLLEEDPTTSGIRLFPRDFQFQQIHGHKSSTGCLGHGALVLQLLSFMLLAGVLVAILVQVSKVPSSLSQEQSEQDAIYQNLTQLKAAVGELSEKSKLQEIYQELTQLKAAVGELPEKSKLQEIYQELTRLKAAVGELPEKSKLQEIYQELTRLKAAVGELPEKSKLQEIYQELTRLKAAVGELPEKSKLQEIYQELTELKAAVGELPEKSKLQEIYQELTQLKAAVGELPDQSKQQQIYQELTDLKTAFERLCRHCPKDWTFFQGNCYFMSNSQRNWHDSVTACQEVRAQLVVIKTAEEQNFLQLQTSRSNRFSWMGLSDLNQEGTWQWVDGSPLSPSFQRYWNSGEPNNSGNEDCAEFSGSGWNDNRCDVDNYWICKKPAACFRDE
The experiment can be described thus: Inhibition of DC-SIGN (unknown origin)- mediated fluorescent probe binding at 1 mM relative to control.

Experiment [2] deals with T1, C-type lectin domain family 4 member M (Homo sapiens). As to the kind of experiment: Inhibition of DC-SIGN (unknown origin)- mediated fluorescent probe binding at 0.1 mM relative to control.
In experiment [3] the target is C-type lectin domain family 4 member K (Homo sapiens, UniProt Q9UJ71). As to the kind of experiment: Binding affinity to Langerin (unknown origin) by [19F] R2-filtered NMR assay.
Sequence of C-type lectin domain family 4 member K (Homo sapiens, UniProt Q9UJ71) (Q9UJ71 whole entry, the tested form may be a part): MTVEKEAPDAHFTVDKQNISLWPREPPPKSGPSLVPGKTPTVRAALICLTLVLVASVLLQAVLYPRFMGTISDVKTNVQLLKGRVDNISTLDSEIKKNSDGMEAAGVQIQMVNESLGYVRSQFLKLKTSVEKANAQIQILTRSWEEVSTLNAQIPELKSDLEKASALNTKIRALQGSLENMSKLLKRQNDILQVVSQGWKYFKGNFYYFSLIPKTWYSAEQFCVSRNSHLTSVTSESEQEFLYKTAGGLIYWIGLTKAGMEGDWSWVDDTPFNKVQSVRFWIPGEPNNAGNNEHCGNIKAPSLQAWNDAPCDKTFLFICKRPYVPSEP
Experiment [4] has as its target T2, C-type lectin domain family 4 member K (Mus musculus, UniProt Q8VBX4).
T2 sequence (Q8VBX4 whole entry): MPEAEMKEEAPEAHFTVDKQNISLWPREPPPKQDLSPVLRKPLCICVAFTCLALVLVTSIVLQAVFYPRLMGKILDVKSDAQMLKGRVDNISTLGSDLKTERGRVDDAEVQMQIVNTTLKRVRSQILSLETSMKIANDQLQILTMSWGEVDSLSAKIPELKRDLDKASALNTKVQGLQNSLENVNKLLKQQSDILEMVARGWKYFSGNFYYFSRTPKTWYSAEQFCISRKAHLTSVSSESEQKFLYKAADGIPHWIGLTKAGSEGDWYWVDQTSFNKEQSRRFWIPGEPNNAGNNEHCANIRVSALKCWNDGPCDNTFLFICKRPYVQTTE
As to the kind of experiment: Inhibition of mannan binding to mouse Langerin extracellular domain assessed as apparent dissociation constant by ELLA assay. The following applies: read-out: Kd(app).

In experiment [5] the target is T2, C-type lectin domain family 4 member K. As to the kind of experiment: Inhibition of mannan binding to mouse Langerin extracellular domain by ELLA assay.
The subject of experiment [6] is Human immunodeficiency virus 1. The experiment can be described thus: Antiviral activity against HIV-1 in human CD4+Th cells expressing DC-SIGN assessed as inhibition of viral infection. Format: functional, organism-based. As to conditions: Human immunodeficiency virus 1, CD4+ve Th.
For a further experiment, the system named is Ebolavirus. As to the kind of experiment: Antiviral activity against envelope pseudotyped Ebola virus in human Jurkat cells expressing DC-SIGN assessed as inhibition of viral infection. It counts as functional, organism-based.
The nature of experiment [7]: Inhibition of DC-SIGN (unknown origin)/ SARS CoV-2 spike glycoprotein interaction.

Broadly, the inhibition is the relative decrease from the control value, in per cent. As for `NS(=O)(=O)c1ccc(CCCC2Nc3ccc(C(=O)N4CCN(c5ccncc5)CC4)cc3NC2=O)cc1` (stereo unspecified), the inhibition in experiment [1] is 92%; in experiment [2] it was 79%.

As a reminder, the Ki is a dissociation constant, usually derived from enzyme kinetics or from competition with a known ligand. A low value points to higher affinity. As for `C#CCO[C@H]1O[C@H](CO)[C@@H](O)[C@H](O)[C@@H]1NC(C)=O`, the inhibitory constant (Ki) in experiment [3] came to 48 mM.

One may read the IC50 as the concentration needed to halve the response being measured. As for `O=C(NCCc1cn2c(n1)SCC2)c1cnc2sccn2c1=O`, the Kd in experiment [4] was found to be 450 µM. In addition, the IC50 in experiment [5] was 50 µM.

As to `N[C@H]1C(O)O[C@H](CO)[C@@H](O)[C@@H]1O` (stereo partly specified) [GLUCOSAMINE SULFATE], the inhibition constant Ki in experiment [3] was found to be 1.4 mM.

Regarding `[N-]=[N+]=NCCO[C@H]1C[C@H](C(=O)NCc2ccc(CO)cc2)[C@@H](C(=O)NCc2ccc(CO)cc2)C[C@@H]1O[C@H]1O[C@H](CO)[C@@H](O)[C@H](O)[C@@H]1O`, the half-inhibitory concentration (IC50) was 24 nM in experiment [6] and less than 60 nM in the experiment with Ebolavirus (Orthoebolavirus, Jurkat).

`CC(=O)NCCO[C@@H]1O[C@H](CO)[C@@H](O)[C@H](O)[C@H]1NS(=O)(=O)c1ccc(C)cc1`: the affinity in experiment [3] corresponds to a Ki of 0.32 mM.

`O=C(NCc1ccc(CO)cc1)[C@H]1C[C@H](OCCn2cc(COCCC(CCOCCn3cc(-c4cc(OCCOCCO)c(C#Cc5cc(OCCOCCO)c(C#Cc6cc(OCCOCCO)c(-c7cn(CCOCCC(CCOCc8cn(CCO[C@H]9C[C@H](C(=O)NCc%10ccc(CO)cc%10)[C@@H](C(=O)NCc%10ccc(CO)cc%10)C[C@@H]9O[C@H]9O[C@H](CO)[C@@H](O)[C@H](O)[C@@H]9O)nn8)(CCOCc8cn(CCO[C@H]9C[C@H](C(=O)NCc%10ccc(CO)cc%10)[C@@H](C(=O)NCc%10ccc(CO)cc%10)C[C@@H]9O[C@H]9O[C@H](CO)[C@@H](O)[C@H](O)[C@@H]9O)nn8)CCOCc8cn(CCO[C@H]9C[C@H](C(=O)NCc%10ccc(CO)cc%10)[C@@H](C(=O)NCc%10ccc(CO)cc%10)C[C@@H]9O[C@H]9O[C@H](CO)[C@@H](O)[C@H](O)[C@@H]9O)nn8)nn7)cc6OCCOCCO)cc5OCCOCCO)cc4OCCOCCO)nn3)(CCOCc3cn(CCO[C@H]4C[C@H](C(=O)NCc5ccc(CO)cc5)[C@@H](C(=O)NCc5ccc(CO)cc5)C[C@@H]4O[C@H]4O[C@H](CO)[C@@H](O)[C@H](O)[C@@H]4O)nn3)CCOCc3cn(CCO[C@H]4C[C@H](C(=O)NCc5ccc(CO)cc5)[C@@H](C(=O)NCc5ccc(CO)cc5)C[C@@H]4O[C@H]4O[C@H](CO)[C@@H](O)[C@H](O)[C@@H]4O)nn3)nn2)[C@@H](O[C@H]2O[C@H](CO)[C@@H](O)[C@H](O)[C@@H]2O)C[C@@H]1C(=O)NCc1ccc(CO)cc1` gave a half-maximal inhibitory concentration (IC50) in experiment [7] of 9.6 µM.

As to `NC(=O)c1ccc(CCCC2Nc3ccc(C(=O)N4CCN(c5ncccn5)CC4)cc3NC2=O)cc1` (stereo unspecified), the figures for the inhibition in experiment [1] and in experiment [2] were 77% and 53%, respectively.

Turning to `C#CCO[C@H]1O[C@H](CO)[C@@H](O)[C@H](O)[C@@H]1NC(=O)CS(=O)(=O)O`, the Ki in experiment [3] was 1.3 mM.

For the molecule `COC(=O)[C@H]1C[C@H](OCCN)[C@@H](O[C@H]2O[C@H](CO)[C@@H](O)[C@H](O)[C@@H]2O)C[C@@H]1C(=O)OC`, the concentration for half-maximal inhibition (IC50) in experiment [6] was 24 nM; with Ebolavirus (jurkat) it was less than 60 nM.

Molecule `C#CCO[C@H]1O[C@H](CO)[C@@H](O)[C@H](O)[C@@H]1NC(=O)Cc1nnn[nH]1` gave a Ki in experiment [3] of 7.6 mM.
